In the supplement of paper PMC10307832:

Legend:
Assay in all cases: relative viability (nuclei count vs DMSO), 5 days (fraction); higher = more cells survive
[1] = test system: NCI-H2085
How it was run: (§1)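 Each reported value is a median over duplicate plates. It expresses relative viability: treated-well nuclei count divided by vehicle-well nuclei count. Lung cancer cell lines in 1536-well plates were dosed by pin tool a day after seeding, alone with one drug or with a fixed anchor-drug dose plus five library-drug doses (not always all listed) in √10 steps, and nuclei were counted after 5 days.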

[2] = test system: NCI-H358
How it was run: as §1

[3] = test system: SW 1573
How it was run: as §1

[4] = test system: 201T
How it was run: as §1

[5] = test system: LCLC-97TM1
How it was run: as §1

[6] = test system: NCI-H1975
How it was run: as §1

[7] = test system: HCC-44
How it was run: as §1

[8] = test system: NCI-H2342
How it was run: as §1

[9] = test system: H3255
How it was run: as §1

[10] = test system: BEN
How it was run: as §1

[11] = test system: NCI-H1437
How it was run: as §1

[12] = test system: NCI-H1666
How it was run: as §1

[13] = test system: NCI-H647
How it was run: as §1

[14] = test system: EPLC-272H
How it was run: as §1

[15] = test system: PC-3 [JPC-3]
How it was run: as §1

[16] = test system: LU99A
How it was run: as §1

[17] = test system: NCI-H1395
How it was run: as §1

[18] = test system: NCI-H2126
How it was run: as §1

[19] = test system: COR-L 105
How it was run: as §1

[20] = test system: LOU-NH91
How it was run: as §1

[21] = test system: HCC-827
How it was run: as §1

[22] = test system: EKVX
How it was run: as §1

[23] = test system: NCI-H2087
How it was run: as §1

[24] = test system: HOP-62
How it was run: as §1

`Clc1ccc(Nc2nnc(Cc3ccncc3)c3ccccc23)cc1` [Vatalanib] + Cc1cc(Nc2cc(N3CCN(C)CC3)nc(Sc3ccc(NC(=O)C4CC4)cc3)n2)n[nH]1 [Tozasertib] (partner 0.1 µM) gave a relative viability ([1]; first compound 0.04 µM) of 0.796, a relative viability ([1]; first compound 0.1265 µM) of 0.831 and a relative viability ([1]; first compound 0.4 µM) of 0.829. For the same compound, the relative viability ([1]; first compound 1.265 µM) was 0.744, the relative viability ([1]; first compound 4 µM) was 0.637 and the relative viability ([2]; first compound 0.04 µM) was 0.0969. It also gave a relative viability ([2]; first compound 0.1265 µM) of 0.0902, a relative viability ([2]; first compound 0.4 µM) of 0.08 and a relative viability ([2]; first compound 1.265 µM) of 0.108. It also gave a relative viability ([2]; first compound 4 µM) of 0.0997, a relative viability ([3]; first compound 0.04 µM) of 0.145 and a relative viability ([3]; first compound 0.1265 µM) of 0.165. For the same compound, the relative viability ([3]; first compound 0.4 µM) was 0.215, the relative viability ([3]; first compound 1.265 µM) was 0.257 and the relative viability ([3]; first compound 4 µM) was 0.153. It also gave a relative viability ([4]; first compound 0.04 µM) of 0.932, a relative viability ([4]; first compound 0.1265 µM) of 0.943 and a relative viability ([4]; first compound 0.4 µM) of 0.985. The relative viability ([4]; first compound 1.265 µM) was 0.896, the relative viability ([4]; first compound 4 µM) was 0.916 and the relative viability ([5]; first compound 0.04 µM) was 0.301. For the same compound, the relative viability ([5]; first compound 0.1265 µM) was 0.196, the relative viability ([5]; first compound 0.4 µM) was 0.237 and the relative viability ([5]; first compound 1.265 µM) was 0.21. The relative viability ([5]; first compound 4 µM) was 0.263, the relative viability ([6]; first compound 0.04 µM) was 0.835 and the relative viability ([6]; first compound 0.1265 µM) was 0.687. It also gave a relative viability ([6]; first compound 0.4 µM) of 0.726, a relative viability ([6]; first compound 1.265 µM) of 0.535 and a relative viability ([6]; first compound 4 µM) of 0.424. It also gave a relative viability ([7]; first compound 0.04 µM) of 1.1, a relative viability ([7]; first compound 0.1265 µM) of 0.887 and a relative viability ([7]; first compound 0.4 µM) of 0.91. The relative viability ([7]; first compound 1.265 µM) was 0.907, the relative viability ([7]; first compound 4 µM) was 0.815 and the relative viability ([8]; first compound 0.04 µM) was 0.618. The relative viability ([8]; first compound 0.1265 µM) was 0.532, the relative viability ([8]; first compound 0.4 µM) was 0.492 and the relative viability ([8]; first compound 1.265 µM) was 0.465. The relative viability ([8]; first compound 4 µM) was 0.492, the relative viability ([9]; first compound 0.04 µM) was 0.626 and the relative viability ([9]; first compound 0.1265 µM) was 0.619. For the same compound, the relative viability ([9]; first compound 0.4 µM) was 0.637, the relative viability ([9]; first compound 1.265 µM) was 0.75 and the relative viability ([9]; first compound 4 µM) was 0.63. The relative viability ([10]; first compound 0.04 µM) was 0.464, the relative viability ([10]; first compound 0.1265 µM) was 0.535 and the relative viability ([10]; first compound 0.4 µM) was 0.557. The relative viability ([10]; first compound 1.265 µM) was 0.439, the relative viability ([10]; first compound 4 µM) was 0.412 and the relative viability ([11]; first compound 0.04 µM) was 0.409. The relative viability ([11]; first compound 0.1265 µM) was 0.353, the relative viability ([11]; first compound 0.4 µM) was 0.41 and the relative viability ([11]; first compound 1.265 µM) was 0.437. The relative viability ([11]; first compound 4 µM) was 0.392, the relative viability ([12]; first compound 0.04 µM) was 0.617 and the relative viability ([12]; first compound 0.1265 µM) was 0.569. It also gave a relative viability ([12]; first compound 0.4 µM) of 0.615, a relative viability ([12]; first compound 1.265 µM) of 0.568 and a relative viability ([12]; first compound 4 µM) of 0.55. For the same compound, the relative viability ([13]; first compound 0.04 µM) was 0.3, the relative viability ([13]; first compound 0.1265 µM) was 0.262 and the relative viability ([13]; first compound 0.4 µM) was 0.352. For the same compound, the relative viability ([13]; first compound 1.265 µM) was 0.26, the relative viability ([13]; first compound 4 µM) was 0.259 and the relative viability ([14]; first compound 0.04 µM) was 0.319. It also gave a relative viability ([14]; first compound 0.1265 µM) of 0.271, a relative viability ([14]; first compound 0.4 µM) of 0.411 and a relative viability ([14]; first compound 1.265 µM) of 0.324. It also gave a relative viability ([14]; first compound 4 µM) of 0.249, a relative viability ([15]; first compound 0.04 µM) of 0.876 and a relative viability ([15]; first compound 0.1265 µM) of 0.864. For the same compound, the relative viability ([15]; first compound 0.4 µM) was 0.873, the relative viability ([15]; first compound 1.265 µM) was 0.835 and the relative viability ([15]; first compound 4 µM) was 0.876. For the same compound, the relative viability ([16]; first compound 0.04 µM) was 0.282, the relative viability ([16]; first compound 0.1265 µM) was 0.289 and the relative viability ([16]; first compound 0.4 µM) was 0.305. The relative viability ([16]; first compound 1.265 µM) was 0.266, the relative viability ([16]; first compound 4 µM) was 0.286 and the relative viability ([17]; first compound 0.04 µM) was 0.734. The relative viability ([17]; first compound 0.1265 µM) was 0.75, the relative viability ([17]; first compound 0.4 µM) was 0.747 and the relative viability ([17]; first compound 1.265 µM) was 0.648. For the same compound, the relative viability ([17]; first compound 4 µM) was 0.792, the relative viability ([18]; first compound 0.04 µM) was 0.808 and the relative viability ([18]; first compound 0.1265 µM) was 0.769. For the same compound, the relative viability ([18]; first compound 0.4 µM) was 0.829, the relative viability ([18]; first compound 1.265 µM) was 0.805 and the relative viability ([18]; first compound 4 µM) was 0.82. It also gave a relative viability ([19]; first compound 0.04 µM) of 0.339, a relative viability ([19]; first compound 0.1265 µM) of 0.344 and a relative viability ([19]; first compound 0.4 µM) of 0.451. The relative viability ([19]; first compound 1.265 µM) was 0.35, the relative viability ([19]; first compound 4 µM) was 0.362 and the relative viability ([20]; first compound 0.04 µM) was 0.768. It also gave a relative viability ([20]; first compound 0.1265 µM) of 0.634, a relative viability ([20]; first compound 1.265 µM) of 0.652 and a relative viability ([20]; first compound 4 µM) of 0.621. The relative viability ([21]; first compound 0.04 µM) was 0.378, the relative viability ([21]; first compound 0.1265 µM) was 0.423 and the relative viability ([21]; first compound 0.4 µM) was 0.463. The relative viability ([21]; first compound 1.265 µM) was 0.429, the relative viability ([21]; first compound 4 µM) was 0.367 and the relative viability ([22]; first compound 0.04 µM) was 0.392. For the same compound, the relative viability ([22]; first compound 0.1265 µM) was 0.363, the relative viability ([22]; first compound 0.4 µM) was 0.427 and the relative viability ([22]; first compound 4 µM) was 0.343. It also gave a relative viability ([23]; first compound 0.04 µM) of 0.254, a relative viability ([23]; first compound 0.1265 µM) of 0.261 and a relative viability ([23]; first compound 0.4 µM) of 0.295. It also gave a relative viability ([23]; first compound 1.265 µM) of 0.228, a relative viability ([23]; first compound 4 µM) of 0.253 and a relative viability ([24]; first compound 0.04 µM) of 0.401. The relative viability ([24]; first compound 0.1265 µM) was 0.335, the relative viability ([24]; first compound 0.4 µM) was 0.396 and the relative viability ([24]; first compound 1.265 µM) was 0.336. For the same compound, the relative viability ([24]; first compound 4 µM) was 0.405.
